One may read the IC50 as the concentration at which inhibition is half-maximal. Lower therefore signals greater potency in that assay.

Data on 1 compound can be found in BindingDB's records for doi:10.1021/jm800355c (Saarland University, 2008).

The target of this assay is T1, Cytochrome P450 11B1, mitochondrial (Homo sapiens, UniProt P15538).
T1 sequence (P15538 whole entry): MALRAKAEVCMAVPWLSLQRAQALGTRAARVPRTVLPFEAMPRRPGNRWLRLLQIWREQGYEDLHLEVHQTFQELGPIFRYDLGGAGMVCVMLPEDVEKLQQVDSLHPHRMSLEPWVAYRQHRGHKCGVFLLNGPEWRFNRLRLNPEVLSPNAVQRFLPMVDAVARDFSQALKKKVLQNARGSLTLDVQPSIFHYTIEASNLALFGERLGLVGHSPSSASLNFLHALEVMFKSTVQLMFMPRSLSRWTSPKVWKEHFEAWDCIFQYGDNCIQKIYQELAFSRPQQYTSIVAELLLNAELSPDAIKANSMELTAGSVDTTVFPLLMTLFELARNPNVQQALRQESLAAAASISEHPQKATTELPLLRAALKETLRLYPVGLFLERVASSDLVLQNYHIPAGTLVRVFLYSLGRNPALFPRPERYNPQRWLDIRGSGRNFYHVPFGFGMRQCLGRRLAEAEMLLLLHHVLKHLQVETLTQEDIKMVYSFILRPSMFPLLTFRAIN
Put plainly: CYP11B1 Inhibition Assay. The procedure:
The enzyme activity was assayed by monitoring the conversion of deoxycorticosterone to corticosterone in the presence of inhibitor compounds. The product formation was monitored by HPTLC using a phosphoimager system.

In turn, `C[C@]12CC[C@H](O)CC1=CC[C@@H]1[C@@H]2CC[C@]2(C)C(c3cccnc3)=CC[C@@H]12` [ABT] gave an IC50 of 1610 nM. In other words, the single-digit micromolar range.
